Tests used:
[1] = tested on: E. coli MG1655/pLAFRI (resistant strain); conditions: after 4 hours of growth; comparable by CCD imaging, liquid culture or colony counting
Protocol: (§1) Cells of two strains, one resistant and one sensitive, were tested for their ability to grow in a period of several hours in the antibiotic. Growth was detected by large area imaging of individual cells stained with a fluorescent nucleic acid stain.
(§2) Experimental procedure. […] Also at these times points both a visible turbidity growth check and a plate count were performed. The turbidity check was performed according to NCCLS broth dilution guidelines. A “+” was recorded for a turbid culture and a “−” for non-turbid culture. The 1 ml aliquots were then stained with Syber Green I as in Example 2. Aliquots (10 μl) of the stained cells were placed in separate wells (with optically clear bottoms) of a 96 well plate (Greiner America, Inc.; cat. num. 655896), which contained 90 μl of water (Type I quality). The plates were spun in a centrifuge (Beckman Allegra) for 10 min at 600 g and then imaged. Fluorescence was detected by imaging using a CCD imager (described in Step 6 of Detailed description section and shown in FIG. 3) with an FITC optical filter set (Chroma/excitation 470/40 nm, emission 522/40 nm). Image-Pro Plus software, version 4.1 (Media cybernetics) was used to capture and process images from the CCD Imager.

[2] = tested on: E. coli MG1655 (sensitive strain); experiment: Rapid antimicrobial susceptibility testing (broth dilution, large area CCD imaging); type: cell-based; conditions: after 4 hours of growth; comparable by CCD imaging, liquid culture or colony counting
Protocol: as §1, §2

Q: How did the “antibiotic concentration in which dramatic growth of the resistant strain was evident” value [1] turn out when `CN(C)[C@@H]1C(O)=C(C(N)=O)C(=O)[C@@]2(O)C(O)=C3C(=O)c4c(O)cccc4[C@@](C)(O)[C@H]3C[C@@H]12` [tetracycline] was run?
A: 64 µg/mL

Q: What about the “antibiotic concentration that inhibited growth of the antibiotic sensitive strain” value [2] of the same molecule?
A: 0.25 µg/mL

From patent publication US8021848B2, “Rapid and sensitive detection of cells and viruses” (Straus Holdings Inc., priority 2001, dated 2011)
